Literature values in patent publication US20210121528A1, “COMPOSITIONS FOR TREATING LUNG INFECTIONS BY AIRWAY ADMINISTRATION” (priority 2014, published 2021).
Where two headings read alike, the source gives them in different places.

Assays:
[1] = not given; remark: listed apart in the source
[2] = in vivo, po
[3] = not given; remark: listed apart in the source
[4] = tested on: strains of organisms from the susceptible genera
[5] = tested on: Staphylococcus, Streptococcus, Neisseria, Escherichia, Proteus (indole-negative), Serratia, Salmonella, Shigella, Pseudomonas, Haemophilus, Vibrio, and …; conditions: aerobic genera
[6] = tested on: Moraxella catarrhalis, Burkholderia cepacia, Mycobacterium spp. and Stenotrophomonas maltophilia
[7] = tested on: Veillonella and Fusobacterium; conditions: anaerobic genera
Prevotella = conditions: anaerobic genus
[8] = tested on: methicillin-resistant Staphylococcus aureus and extended spectrum 13-lactamase (ESBL) enterobacteria; conditions: resistant bacteria
[9] = human, in vivo
[10] = tested on: mammalian cells and organs
[11] = tested on: polymorphonuclear leukocytes
[12] = tested on: lethal pneumococcal pneumonia; conditions: local delivery, mice
macrophages = conditions: in vitro incubation

C[C@@H]1O[C@@H]1P(=O)(O)O.NC(CO)(CO)CO [Fosfomycin trometamol]
pH of 5% solution: 3.5-5.5
solubility in water [1]: highly soluble
bioavailability [2]: about 40%
irritation of the stomach / oral tolerability ([3]; oral): well tolerated

C[C@@H]1O[C@@H]1P(=O)(O)O [Fosfomycin calcium monohydrate]
pH of 0.4% solution (0.4% solution): 8.1-9.6
solubility in water [1]: sparingly soluble
irritation of the stomach / oral tolerability ([3]; in vivo, po): less irritating to the stomach

C[C@@H]1O[C@@H]1P(=O)(O)O [fosfomycin, [(2R,3S)-3-methyloxiran-2-yl]phosphonic acid]
synergistic effect, share of tested strains ([4]; early studies, various antibiotic combinations): 70-100%
synergy rates ([4]; subsequent more extensive studies): 36-74%
bactericidal activity [5]: active
bactericidal activity [6]: less active
bactericidal activity [7]: active
bactericidal activity (Prevotella): moderately active
bactericidal activity [8]: active
eosinophilia [9]: 0.2%
transient rashes [9]: 0.3 % of cases
transiently raised liver enzymes [9]: 0.3 % of cases
toxicity to mammalian cells and organs [10]: remarkably non-toxic
concentration in polymorphonuclear leukocytes relative to the extracellular fluid [11]: twice

GM-CSF: Monomeric protein of 127 amino-acid residues, colony-stimulating factor; SEQ ID NO: 2 mature human form
protection from lethal pneumococcal pneumonia [12]: protects
time for transformation of a resting macrophage into a fully immunocompetent dendritic cell (macrophages): approximately 10 days

C[C@@H]1O[C@@H]1P(=O)(O)O [Fosfomycin disodium]
pH of 5% solution: 9.0-10.5
solubility in water [1]: highly soluble
irritation of the stomach / oral tolerability ([3]; in vivo, po): irritant to the stomach
